{"source": "patent US4346076A", "about": "“Bis-tetrazoylmethyl substituted cephalosporin antibiotics” (Eli Lilly and Company, priority 1980, dated 1982)", "test_in_all_cases": "in vitro antibacterial activity, agar dilution", "assay_type_in_all_cases": "cell-based", "key": {"Haemophilus influenzae": {"test_system": "Haemophilus influenzae", "details": "for MIC: Haemophilus influenzae, read-out: Minimum Inhibitory Concentration", "source_text": "(§1) The bis-tetrazol-thiomethyl substituted cephalosporins of this invention are broad spectrum antibiotics which inhibit the growth of both gram positive and gram negative microorganisms which are pathogenic to man and animals. […] The following Table 2 lists the minimum inhibitory concentrations of representative compounds of the invention.\n(§2) The data in TABLE 2 were obtained in the agar dilution test method using Mueller-Hinton agar containing two percent Supplement C (Difco). Serial two-fold dilutions were run with the highest concentration on test at 128 mcg/ml."}, "Shigella sonnei": {"test_system": "Shigella sonnei", "details": "strain N9, read-out: Minimum Inhibitory Concentration", "source_text": "as §1, §2"}, "Salmonella sp.": {"test_system": "Salmonella sp.", "source_text": "as §1, §2"}, "Enterobacter cloacae": {"test_system": "Enterobacter cloacae", "source_text": "as §1, §2"}, "[1]": {"test_system": "Staphylococcus epidermidis", "source_text": "as §1, §2"}, "Proteus morganii": {"test_system": "Proteus morganii", "details": "Morganella morganii, read-out: Minimum Inhibitory Concentration", "source_text": "as §1, §2"}, "Staphylococcus aureus": {"test_system": "Staphylococcus aureus", "source_text": "as §1, §2"}, "Serratia marcescens": {"test_system": "Serratia marcescens", "source_text": "as §1, §2"}, "Streptococcus Group D": {"test_system": "Streptococcus Group D", "details": "read-out: Minimum Inhibitory Concentration", "source_text": "as §1, §2"}, "Streptococcus Group A": {"test_system": "Streptococcus Group A", "details": "strain C203; read-out: Minimum Inhibitory Concentration", "source_text": "as §1, §2"}, "Streptococcus pneumoniae": {"test_system": "Streptococcus pneumoniae", "details": "strain PARK, read-out: Minimum Inhibitory Concentration", "source_text": "as §1, §2"}, "Citrobacter freundii": {"test_system": "Citrobacter freundii", "details": "strain CF17, read-out: Minimum Inhibitory Concentration", "source_text": "as §1, §2"}, "Klebsiella sp.": {"test_system": "Klebsiella sp.", "source_text": "as §1, §2"}, "Escherichia coli": {"test_system": "Escherichia coli", "source_text": "as §1, §2"}, "Pseudomonas aeruginosa": {"test_system": "Pseudomonas aeruginosa", "source_text": "as §1, §2"}, "Proteus rettgeri": {"test_system": "Proteus rettgeri", "details": "Providencia rettgeri, read-out: Minimum Inhibitory Concentration", "source_text": "as §1, §2"}, "Proteus inconstans": {"test_system": "Proteus inconstans", "details": "Providencia alcalifaciens; strain PR33; read-out: Minimum Inhibitory Concentration", "source_text": "as §1, §2"}, "Enterobacter aerogenes": {"test_system": "Enterobacter aerogenes", "details": "for MIC: Klebsiella aerogenes, read-out: Minimum Inhibitory Concentration", "source_text": "as §1, §2"}, "[2]": {"test_system": "Bordetella bronchoseptica", "details": "strain 16, read-out: Minimum Inhibitory Concentration", "source_text": "as §1, §2"}, "[3]": {"details": "strain 1335, read-out: Minimum Inhibitory Concentration"}, "[4]": {"details": "strain X514, read-out: Minimum Inhibitory Concentration"}, "[5]": {"details": "strain 265A, read-out: Minimum Inhibitory Concentration"}, "[6]": {"details": "strain EB5, read-out: Minimum Inhibitory Concentration"}, "[7]": {"details": "strain EPI1, read-out: Minimum Inhibitory Concentration"}, "[8]": {"details": "strain EPI2, read-out: Minimum Inhibitory Concentration"}, "[9]": {"details": "read-out: Minimum Inhibitory Concentration"}, "[10]": {"details": "strain V41, read-out: Minimum Inhibitory Concentration"}, "[11]": {"details": "strain X1.1, read-out: Minimum Inhibitory Concentration"}, "[12]": {"details": "strain X400, read-out: Minimum Inhibitory Concentration"}, "[13]": {"details": "strain SE3, read-out: Minimum Inhibitory Concentration"}, "[14]": {"details": "strain KAE, read-out: Minimum Inhibitory Concentration"}, "[15]": {"details": "strain X26, read-out: Minimum Inhibitory Concentration"}, "[16]": {"details": "strain EC14, read-out: Minimum Inhibitory Concentration"}, "[17]": {"details": "strain N10, read-out: Minimum Inhibitory Concentration"}, "[18]": {"details": "strain Ps18, read-out: Minimum Inhibitory Concentration"}, "[19]": {"details": "strain X239, read-out: Minimum Inhibitory Concentration"}, "[20]": {"details": "strain X528, read-out: Minimum Inhibitory Concentration"}}, "note": "Read-outs that look alike come from different tables or passages of the source.", "data": [{"smiles": "CO/N=C(\\C(=O)N[C@@H]1C(=O)N2C(C(=O)O)=C(CSc3nnnn3Cc3nnnn3C)CS[C@H]12)c1csc(N)n1", "note": "[F]", "values": [{"measurement": "MIC", "setting": "Haemophilus influenzae", "value": 0.125, "unit": "µg/mL"}, {"measurement": "Minimum Inhibitory Concentration", "setting": "Haemophilus influenzae; strain 251, resistant strain", "value": ".125 µg/mL"}, {"measurement": "MIC", "setting": "Shigella sonnei", "value": 0.125, "unit": "µg/mL"}, {"measurement": "MIC", "setting": "Salmonella sp.; [3]", "value": 0.5, "unit": "µg/mL"}, {"measurement": "MIC", "setting": "Salmonella sp.; [4]", "value": 0.25, "unit": "µg/mL"}, {"measurement": "MIC", "setting": "Enterobacter cloacae; [5]", "value": 32, "unit": "µg/mL"}, {"measurement": "MIC", "setting": "Enterobacter cloacae; [6]", "value": 1, "unit": "µg/mL"}, {"measurement": "MIC", "setting": "[1]; [7]", "value": 8, "unit": "µg/mL"}, {"measurement": "MIC", "setting": "[1]; [8]", "value": 32, "unit": "µg/mL"}, {"measurement": "MIC", "setting": "Proteus morganii", "value": 0.125, "unit": "µg/mL"}, {"measurement": "MIC", "setting": "Staphylococcus aureus; [9]", "value": 8, "unit": "µg/mL"}, {"measurement": "MIC", "setting": "Staphylococcus aureus; [10]", "value": 4, "unit": "µg/mL"}, {"measurement": "MIC", "setting": "Staphylococcus aureus; [11]", "value": 2, "unit": "µg/mL"}, {"measurement": "MIC", "setting": "Staphylococcus aureus; [12]", "value": "> 128", "unit": "µg/mL"}, {"measurement": "MIC", "setting": "Serratia marcescens; [9]", "value": 0.125, "unit": "µg/mL"}, {"measurement": "MIC", "setting": "Serratia marcescens; [13]", "value": 0.5, "unit": "µg/mL"}, {"measurement": "MIC", "setting": "Streptococcus Group D; strain 9960", "value": 16, "unit": "µg/mL"}, {"measurement": "MIC", "setting": "Streptococcus Group D; strain X66", "value": "> 128", "unit": "µg/mL"}, {"measurement": "MIC", "setting": "Streptococcus Group A", "value": 0.03, "unit": "µg/mL"}, {"measurement": "MIC", "setting": "Streptococcus pneumoniae", "value": 0.015, "unit": "µg/mL"}, {"measurement": "MIC", "setting": "Citrobacter freundii", "value": 16, "unit": "µg/mL"}, {"measurement": "MIC", "setting": "Klebsiella sp.; [14]", "value": 4, "unit": "µg/mL"}, {"measurement": "MIC", "setting": "Klebsiella sp.; [15]", "value": 0.06, "unit": "µg/mL"}, {"measurement": "MIC", "setting": "Escherichia coli; [9]", "value": 0.125, "unit": "µg/mL"}, {"measurement": "MIC", "setting": "Escherichia coli; [16]", "value": 0.06, "unit": "µg/mL"}, {"measurement": "MIC", "setting": "Escherichia coli; [17]", "value": 0.25, "unit": "µg/mL"}, {"measurement": "MIC", "setting": "Pseudomonas aeruginosa; [18]", "value": 32, "unit": "µg/mL"}, {"measurement": "MIC", "setting": "Pseudomonas aeruginosa; [19]", "value": 32, "unit": "µg/mL"}, {"measurement": "MIC", "setting": "Pseudomonas aeruginosa; [20]", "value": 32, "unit": "µg/mL"}, {"measurement": "MIC", "setting": "Proteus rettgeri; strain C24", "value": 0.25, "unit": "µg/mL"}, {"measurement": "MIC", "setting": "Proteus rettgeri; strain PR7", "value": 0.03, "unit": "µg/mL"}, {"measurement": "MIC", "setting": "Proteus inconstans", "value": 0.5, "unit": "µg/mL"}, {"measurement": "MIC", "setting": "Enterobacter aerogenes", "value": 0.125, "unit": "µg/mL"}, {"measurement": "MIC", "setting": "Enterobacter aerogenes; strain EB17", "value": 0.25, "unit": "µg/mL"}, {"measurement": "Minimum Inhibitory Concentration", "setting": "Enterobacter aerogenes; strain C32", "value": ".125 µg/mL"}, {"measurement": "MIC", "setting": "[2]", "value": 128, "unit": "µg/mL"}]}, {"smiles": "CO/N=C(\\C(=O)N[C@@H]1C(=O)N2C(C(=O)O)=C(CSc3nnn(Cc4nnn[nH]4)n3)CS[C@H]12)c1csc(N)n1", "note": "[G, syn 7β-[α-methoximino-α-(2-amino-1,3-thiazol-4-yl)-acetamido]-3-[2-(1H-tetrazol-5-ylmethyl)-2H-tetrazol-5-ylthiomethyl]-3-cephem-4-carboxylic acid]", "values": [{"measurement": "MIC", "setting": "Haemophilus influenzae; strain 251, resistant strain", "value": 0.06, "unit": "µg/mL"}, {"measurement": "MIC", "setting": "Haemophilus influenzae; strain Brun, sensitive strain", "value": 0.06, "unit": "µg/mL"}, {"measurement": "MIC", "setting": "Shigella sonnei", "value": 2, "unit": "µg/mL"}, {"measurement": "MIC", "setting": "Salmonella sp.; [3]", "value": 0.5, "unit": "µg/mL"}, {"measurement": "MIC", "setting": "Salmonella sp.; [4]", "value": 0.125, "unit": "µg/mL"}, {"measurement": "MIC", "setting": "Enterobacter cloacae; [5]", "value": 64, "unit": "µg/mL"}, {"measurement": "MIC", "setting": "Enterobacter cloacae; [6]", "value": 2, "unit": "µg/mL"}, {"measurement": "MIC", "setting": "[1]; [7]", "value": 32, "unit": "µg/mL"}, {"measurement": "MIC", "setting": "[1]; [8]", "value": 64, "unit": "µg/mL"}, {"measurement": "MIC", "setting": "Proteus morganii; strain PR15", "value": 0.5, "unit": "µg/mL"}, {"measurement": "MIC", "setting": "Staphylococcus aureus; [9]", "value": 32, "unit": "µg/mL"}, {"measurement": "MIC", "setting": "Staphylococcus aureus; [10]", "value": 8, "unit": "µg/mL"}, {"measurement": "MIC", "setting": "Staphylococcus aureus; [11]", "value": 4, "unit": "µg/mL"}, {"measurement": "MIC", "setting": "Staphylococcus aureus; [12]", "value": "> 128", "unit": "µg/mL"}, {"measurement": "MIC", "setting": "Serratia marcescens; [13]", "value": 2, "unit": "µg/mL"}, {"measurement": "MIC", "setting": "Serratia marcescens; strain X93, read-out: Minimum Inhibitory Concentration", "value": 0.25, "unit": "µg/mL"}, {"measurement": "MIC", "setting": "Streptococcus Group D; strain 9960", "value": "> 128", "unit": "µg/mL"}, {"measurement": "MIC", "setting": "Streptococcus Group D; strain X66", "value": "> 128", "unit": "µg/mL"}, {"measurement": "MIC", "setting": "Streptococcus Group A", "value": 0.03, "unit": "µg/mL"}, {"measurement": "MIC", "setting": "Streptococcus pneumoniae", "value": 0.03, "unit": "µg/mL"}, {"measurement": "MIC", "setting": "Citrobacter freundii", "value": 64, "unit": "µg/mL"}, {"measurement": "MIC", "setting": "Klebsiella sp.; [14]", "value": 8, "unit": "µg/mL"}, {"measurement": "MIC", "setting": "Klebsiella sp.; [15]", "value": 0.125, "unit": "µg/mL"}, {"measurement": "MIC", "setting": "Escherichia coli; [16]", "value": 0.125, "unit": "µg/mL"}, {"measurement": "MIC", "setting": "Escherichia coli; [17]", "value": 0.25, "unit": "µg/mL"}, {"measurement": "MIC", "setting": "Escherichia coli; strain TEM, read-out: Minimum Inhibitory Concentration", "value": 0.125, "unit": "µg/mL"}, {"measurement": "MIC", "setting": "Pseudomonas aeruginosa; [18]", "value": 32, "unit": "µg/mL"}, {"measurement": "MIC", "setting": "Pseudomonas aeruginosa; [19]", "value": 16, "unit": "µg/mL"}, {"measurement": "MIC", "setting": "Pseudomonas aeruginosa; [20]", "value": 16, "unit": "µg/mL"}, {"measurement": "MIC", "setting": "Proteus rettgeri; strain C24", "value": 2, "unit": "µg/mL"}, {"measurement": "MIC", "setting": "Proteus rettgeri; strain PR7", "value": 0.03, "unit": "µg/mL"}, {"measurement": "MIC", "setting": "Proteus inconstans", "value": 1, "unit": "µg/mL"}, {"measurement": "MIC", "setting": "Enterobacter aerogenes; strain C32", "value": 0.25, "unit": "µg/mL"}, {"measurement": "MIC", "setting": "Enterobacter aerogenes; strain EB17", "value": 0.25, "unit": "µg/mL"}, {"measurement": "MIC", "setting": "Enterobacter aerogenes; strain X68", "value": 0.06, "unit": "µg/mL"}, {"measurement": "MIC", "setting": "[2]", "value": 64, "unit": "µg/mL"}]}]}
